Experimental data as given in ChEMBL document CHEMBL1142747, “Prostatic acid phosphatase in cloacal derivatives” (Bioorg Med Chem Lett, 2005).

Columns and labels:
[1] = Half life of ECA-ATL in buffer at pH 7.4; format: ADME
[2] = Half life of ECA-ATL in serum; format: ADME, cell-free; conditions: human

half-life [1] [h]	half-life [2] [h]	SMILES
14	0.5	C=C(CC)C(=O)c1ccc(OCC(=O)OC(CNC(C)C)COc2ccc(CC(N)=O)cc2)c(Cl)c1Cl (stereo not drawn)
120	< 0.0333	C=C(CC)C(=O)c1ccc(OCC(=O)OCCOCCOCCOCCOCCOCCO)c(Cl)c1Cl
130	< 0.0333	C=C(CC)C(=O)c1ccc(OCC(=O)OCCOCCOCCOCCO)c(Cl)c1Cl
110	< 0.0333	C=C(CC)C(=O)c1ccc(OCC(=O)OCCOCCO)c(Cl)c1Cl
